This is an account of results in ChEMBL document CHEMBL1141724, “Design and synthesis of 2-amino-pyrazolopyridines as Polo-like kinase 1 inhibitors” (Bioorg Med Chem Lett, 2008).

The IC50 is the concentration that gives 50% inhibition. Read a low IC50 as greater potency. The term EC50 denotes the concentration giving half of the maximal effect. Low readings indicate greater potency, high ones weaker potency.

Molecules are shown by their SMILES. The source made the active and inactive calls. The calls are words filed in the database; no cut-off is given here. A value given as a limit tells only on which side of the number the result lay.

Assay [1] addresses Serine/threonine-protein kinase PLK1 (Homo sapiens, UniProt P53350).
Assay [2] concerns HCT-116. The assay can be described thus: cells. The settings on record: Homo sapiens.
Description: Effect on cell cycle progression in human HCT116 cells assessed as mitotic arrest measured by doubling DNA content by High content screening
Assay [3] deals with HCT-116. The assay can be described thus: cells. The note with it: Homo sapiens. The source holds these as a separate data set.
Description: Effect on cell cycle progression in human HCT116 cells assessed as mitotic arrest measured by doubling DNA content by fluorescence microscopy
The test system of assay [4] is HCT-116. The assay can be described thus: cells. The settings on record: Homo sapiens. The source holds these as a separate data set.
Description: Effect on cell cycle progression in human HCT116 cells assessed as increase in phospho-histone H3 by fluorescence microscopy
Assay [5] is described as follows: Selectivity for Plk1 over Plk2.
Assay [6] in a line: Selectivity for Plk1 over Plk3.
The nature of assay [7]: Selectivity for Plk1 over Aurora A.
The subject of assay [8] is HeLa. The assay can be described thus: Decrease in B23 nucleophosmin phosphorylation in human HeLa cells at 5 uM after 16 hrs by Western blot analysis. It is filed as functional, cell-based. Background: Immunoblotting shows a protein as a band on a membrane.

Sequence of Serine/threonine-protein kinase PLK1 (P53350 whole entry): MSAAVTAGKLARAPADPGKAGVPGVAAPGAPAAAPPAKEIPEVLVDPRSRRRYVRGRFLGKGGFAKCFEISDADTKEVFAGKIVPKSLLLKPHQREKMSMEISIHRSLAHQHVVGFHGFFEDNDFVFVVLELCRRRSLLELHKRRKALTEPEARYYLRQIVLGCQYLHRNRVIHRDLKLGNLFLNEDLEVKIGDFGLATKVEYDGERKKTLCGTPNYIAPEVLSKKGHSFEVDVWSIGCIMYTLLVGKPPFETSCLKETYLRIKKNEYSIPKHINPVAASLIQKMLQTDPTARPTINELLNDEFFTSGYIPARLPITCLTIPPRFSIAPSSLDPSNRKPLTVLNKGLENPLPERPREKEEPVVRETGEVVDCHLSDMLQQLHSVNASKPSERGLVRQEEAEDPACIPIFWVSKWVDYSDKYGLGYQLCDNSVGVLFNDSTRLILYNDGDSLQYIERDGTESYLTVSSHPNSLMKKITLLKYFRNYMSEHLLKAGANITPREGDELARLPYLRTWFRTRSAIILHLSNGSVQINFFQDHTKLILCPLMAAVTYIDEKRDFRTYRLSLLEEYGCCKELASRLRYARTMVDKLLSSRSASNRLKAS

Take `Cc1nn(-c2cc(Cl)cc(CCCN)c2)c2cc(N[C@@H](C)c3ccccc3)ncc12`: in assay [1], the IC50 was found to be 0.059 µM. The EC50 in assay [2] was found to be 5.8 µM.

With `CCOC(=O)C1=C(C)NC(=S)NC1c1cccc(O)c1` (centres undefined) [MONASTROL], the EC50 was 1.2 µM in assay [3] and 1.5 µM in assay [4].

`Cc1nn(-c2ccc(F)cc2)c2cc(N[C@@H](C)c3ccccc3)ncc12` yielded an IC50 in assay [1] of 3.24 µM.

As to `Cc1nn(-c2cccc(S(C)(=O)=O)c2)c2cc(N[C@@H](C)c3ccccc3)ncc12`, in assay [1], the IC50 was found to be 0.225 µM.

On to `Cc1nn(-c2cccc(C(C)C)c2)c2cc(N[C@@H](C)c3ccccc3)ncc12`, for which half-maximal inhibition in assay [1] (IC50) was put at 1.48 µM.

With `C[C@H](Nc1cc2c(cn1)cnn2-c1ccccc1C(N)=O)c1ccccc1`, the Selectivity ratio in assay [5] turned out to be 50; in assay [6], 50; in assay [7], 150. In addition, in assay [8], the result was Active. Further, the IC50 in assay [1] was 0.05 µM. Further, the EC50 worked out at 2.43 µM in assay [2], 1.9 µM in assay [3] and 1.7 µM in assay [4].

`Cc1nn(-c2cccc(F)c2)c2cc(N[C@@H](C)c3ccccc3)ncc12` came in with an IC50 in assay [1] of 0.464 µM.

Compound `COc1ccccc1-n1nc(C)c2cnc(N[C@@H](C)c3ccccc3)cc21` registered an IC50 in assay [1] of 14.5 µM.

Regarding `Cc1nn(-c2ccccc2F)c2cc(N[C@@H](C)c3ccccc3)ncc12`, the midpoint of inhibition in assay [1], the IC50, lay at 4.52 µM.

On to `Cc1ccc(-n2nc(C)c3cnc(N[C@@H](C)c4ccccc4)cc32)cc1`, for which, in assay [1], the IC50 was 4.53 µM.

Regarding `Cc1nn(-c2cccc(Cl)c2)c2cc(N[C@@H](C)c3ccccc3)ncc12`, in assay [2], the EC50 was > 20 µM.

For the compound `COc1cccc(-n2nc(C)c3cnc(N[C@@H](C)c4ccccc4)cc32)c1`, the IC50 in assay [1] came to 5.93 µM.

Take `Cc1nn(-c2cc(Cl)cc(Cl)c2)c2cc(N[C@@H](C)c3ccccc3)ncc12`: half-maximal inhibition in assay [1] (IC50) required 0.641 µM.

In turn, `Cc1nn(-c2cccc(N(C)C)c2)c2cc(N[C@@H](C)c3ccccc3)ncc12` gave an IC50 in assay [1] of 0.977 µM.

As to `Cc1nn(-c2cc(Cl)cc(Br)c2)c2cc(N[C@@H](C)c3ccccc3)ncc12`, half-maximal inhibition in assay [1] (IC50) was put at 0.274 µM.

In assay [1], `Cc1nn(-c2ccccc2C(N)=O)c2cc(N[C@@H](C)c3ccccc3)ncc12` returned an IC50 of 0.042 µM. The compound also showed an EC50 in assay [2] of 3.64 µM.

The compound `Cc1ccccc1-n1nc(C)c2cnc(N[C@@H](C)c3ccccc3)cc21` came in with an IC50 in assay [1] of 7.69 µM.

Compound `Cc1nn(-c2cccc(C#N)c2)c2cc(N[C@@H](C)c3ccccc3)ncc12` had an IC50 in assay [1] of 0.412 µM.

`Cc1nn(-c2cc(Cl)cc(CCC(=O)NCCO)c2)c2cc(N[C@@H](C)c3ccccc3)ncc12` gave an IC50 in assay [1] of 0.048 µM. In assay [2], this compound yielded an EC50 of 9.2 µM.

`Cc1nn(-c2cc(Cl)cc(CCC(N)=O)c2)c2cc(N[C@@H](C)c3ccccc3)ncc12`: inhibition in assay [1] was half-maximal at 0.032 µM (IC50). The EC50 in assay [2] came to 9.35 µM.

Regarding `COc1ccc(-n2nc(C)c3cnc(N[C@@H](C)c4ccccc4)cc32)cc1`, in assay [1], the IC50 was determined as 0.703 µM.

On to `Cc1cc(C)cc(-n2nc(C)c3cnc(N[C@@H](C)c4ccccc4)cc32)c1`, for which 0.149 µM corresponded to half-maximal inhibition in assay [1] (IC50).

In assay [1], `Cc1cccc(-n2nc(C)c3cnc(N[C@@H](C)c4ccccc4)cc32)c1` registered an IC50 of 0.474 µM.

In assay [1], `CC(=O)Nc1ccccc1-c1cc(Cl)cc(-n2nc(C)c3cnc(N[C@@H](C)c4ccccc4)cc32)c1` gave an IC50 of 0.207 µM. Further, in assay [2], the EC50 was > 20 µM.

The compound `Cc1nn(-c2cc(Cl)cc(CCC(=O)O)c2)c2cc(N[C@@H](C)c3ccccc3)ncc12` returned an IC50 in assay [1] of 0.021 µM. Besides, in assay [2], the EC50 is > 20 µM.
